Data: ChEMBL document CHEMBL1142835, “(S,E)-N-[1-(3-heteroarylphenyl)ethyl]-3-(2-fluorophenyl)acrylamides: synthesis and KCNQ2 potassium channel opener activity” (Bioorg Med Chem Lett, 2005)

Tests used:
[1] = molecular target: Potassium voltage-gated channel subfamily KQT member 2 (Mus musculus) (UniProt Q9Z351); assay: Relative efficacy as ratio of maximal current amplitudes for compound and reference; format: functional
[2] = molecular target: Potassium voltage-gated channel subfamily KQT member 2 (Mus musculus, UniProt Q9Z351); assay: Effect on outward potassium currents in whole-cell patch clamp assay of HEK 293 cells expressing cloned mouse KCNQ2 channel at -40 mV; format: functional, cell-based, HEK293
Sequence of Potassium voltage-gated channel subfamily KQT member 2 (Q9Z351 whole entry): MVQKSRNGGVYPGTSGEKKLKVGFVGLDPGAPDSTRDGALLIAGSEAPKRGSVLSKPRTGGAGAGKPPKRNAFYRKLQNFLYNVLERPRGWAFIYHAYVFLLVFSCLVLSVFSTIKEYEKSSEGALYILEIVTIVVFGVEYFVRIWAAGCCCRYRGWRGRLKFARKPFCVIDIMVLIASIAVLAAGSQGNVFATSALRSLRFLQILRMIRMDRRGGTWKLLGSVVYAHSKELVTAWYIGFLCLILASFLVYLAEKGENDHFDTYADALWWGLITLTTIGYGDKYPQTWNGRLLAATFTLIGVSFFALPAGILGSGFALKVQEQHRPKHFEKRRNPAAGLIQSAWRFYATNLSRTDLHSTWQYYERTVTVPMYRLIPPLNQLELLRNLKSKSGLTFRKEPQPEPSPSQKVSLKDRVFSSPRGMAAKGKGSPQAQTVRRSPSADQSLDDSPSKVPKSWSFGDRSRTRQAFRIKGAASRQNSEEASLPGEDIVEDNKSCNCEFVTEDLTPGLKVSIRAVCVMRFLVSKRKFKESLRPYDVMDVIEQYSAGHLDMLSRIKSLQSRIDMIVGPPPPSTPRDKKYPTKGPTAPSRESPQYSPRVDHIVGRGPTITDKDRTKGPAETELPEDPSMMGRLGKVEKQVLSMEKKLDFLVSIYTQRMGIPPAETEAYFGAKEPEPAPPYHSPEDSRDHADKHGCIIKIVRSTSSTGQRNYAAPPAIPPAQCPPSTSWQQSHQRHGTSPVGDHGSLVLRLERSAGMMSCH

Sequence of Potassium voltage-gated channel subfamily KQT member 2 (Mus musculus) (Q9Z351 whole entry): as above

CCOC(=O)Nc1ccc(NCc2ccc(F)cc2)cc1N
E/Eref [1]: 1.6

C[C@H](NC(=O)/C=C/c1ccccc1F)c1cccc(-c2cnccn2)c1
EC50 [2]: 370 nM | E/Eref [1]: 1.57

C[C@H](NC(=O)/C=C/c1ccccc1F)c1cccc(-n2cncn2)c1
EC50 [2]: 330 nM | E/Eref [1]: 1.2

C[C@H](NC(=O)/C=C/c1ccccc1F)c1cccc(-n2cccn2)c1
EC50 [2]: 120 nM | E/Eref [1]: 1.6

C[C@H](NC(=O)/C=C/c1ccccc1F)c1cccc(-c2ccccn2)c1
EC50 [2]: 1200 nM | E/Eref [1]: 1.8

C[C@H](NC(=O)/C=C/c1ccccc1Cl)c1ccc2c(c1)OCO2
EC50 [2]: 20 nM | E/Eref [1]: 1.1

C[C@H](NC(=O)/C=C/c1ccccc1)c1cccc(N2CCOCC2)c1
EC50 [2]: 3200 nM | E/Eref [1]: 1.4

C[C@H](NC(=O)/C=C/c1ccccc1F)c1cccc(-c2ccc(F)nc2)c1
EC50 [2]: 10 nM | E/Eref [1]: 0.85

C[C@H](NC(=O)/C=C/c1ccccc1)c1cccc(-n2cccn2)c1
EC50 [2]: 1200 nM | E/Eref [1]: 1.9

C[C@H](NC(=O)/C=C/c1ccccc1F)c1ccc2c(c1)N(CC1CC1)CCO2
E/Eref [1]: 1.83
